# Data taken from DBAASP.
# How the values were obtained:
# Assay in all cases: ≥ marks a high value that may be exact or a test limit, other limits are often not marked, values filed in µg/mL are converted to µM
# [1] = test system: Salmonella enterica subsp. enterica serovar Enteritidis MH91989
# [2] = test system: Stenotrophomonas sp. ICB 308054
# [3] = test system: Proteus vulgaris ICB 9081
# [4] = test system: Acinetobacter baumannii Ab5753
# [5] = test system: Acinetobacter baumannii ICB 14067
# [6] = test system: Acinetobacter baumannii Ab1408
# [7] = test system: Klebsiella pneumoniae CMCC 46117
# [8] = test system: Klebsiella pneumoniae ATCC 27799
# Escherichia coli UB1005 = test system: Escherichia coli UB1005
# [9] = test system: Shigella flexneri CMCC 51572
# [10] = test system: Enterococcus faecalis ATCC 29212
# [11] = test system: Escherichia coli ATCC 25922
# [12] = test system: Micrococcus luteus ATCC 10240
# [13] = test system: Acinetobacter baumannii M17
# [14] = test system: Stenotrophomonas sp. ICB 7789
# Pseudomonas aeruginosa = test system: Pseudomonas aeruginosa
structure (smiles),measurement,setting,value
CC[C@H](C)[C@H](NC(=O)[C@H](CCCN=C(N)N)NC(=O)[C@H](CCCN=C(N)N)NC(=O)[C@@H]1CCCN1C(=O)[C@@H]1CCCN1C(=O)[C@H](CCCN=C(N)N)NC(=O)[C@@H]1CCCN1C(=O)[C@H](CCCN=C(N)N)NC(=O)[C@@H]1CCCN1C(=O)[C@H](CC(C)C)NC(=O)[C@H](Cc1ccc(O)cc1)NC(=O)[C@@H]1CCCN1C(=O)[C@@H]1CCCN1C(=O)[C@H](CCCCN)NC(=O)[C@H](CC(=O)O)NC(=O)[C@@H](N)C(C)C)C(=O)N[C@@H](Cc1ccc(O)cc1)C(=O)N[C@@H](CC(N)=O)C(=O)N[C@@H](CCCN=C(N)N)C(N)=O [VDKPPYLPRPRPPRRIYNR],MIC,[1],0.251 µM
same,MIC,[2],13.4 µM
same,MIC,[3],1.67 µM
same,MIC,[4],≥ 53.5 µM
same,MIC,[5],0.418 µM
same,MIC,[6],≥ 53.5 µM
same,MIC,[7],2 µM
same,MIC,[8],0.418 µM
same,MIC,Escherichia coli UB1005,0.544 µM
same,MIC,[9],8 µM
same,MIC,[10],> 512 µM
same,MIC,[11],8 µM
same,MIC,[12],3.35 µM
same,MIC,[13],0.418 µM
same,MIC,[14],13.4 µM
same,MIC,Pseudomonas aeruginosa,1.18 µM
